From US11000538B2, “Composition for enhancing exercise ability or anti-fatigue comprising novel ginsenoside” (priority 2018, dated 2021) come the findings set out here.

“Also recorded” adds a separate entry of the source.

Data set [1] has as its system mouse-derived myocyte lines (C2C12; ATCC). In words: Mitochondrial production in differentiated myocytes (Mitotracker Green staining, Q-PCR of mitochondrial marker genes). Particulars: 20 pg/ml, 24 hours. It counts as cell-based. How it is done:
(§1) Ginseng seed-derived ginsenosides were administered to mouse-derived myocyte lines (C2C12; ATCC) to observe changes in mitochondrial amount and fatty acid oxidation in myocytes.
(§2) The mouse-derived myocyte lines (C2C12; ATCC) were cultured using Dulbecco's Modified Eagle's Medium (DMEM; Sigma) containing […] fetal bovine serum (Hyclone) and 1% penicillin/streptomycin (Sigma). The cells were induced to be 100% confluent for differentiation into myocytes and then differentiated using a DMEM medium containing 2% horse serum (Hyclone) and 1% penicillin/streptomycin (Sigma). Medium was changed daily, with differentiation for a total of a week.
(§3) After treating the differentiated myocytes with the novel ginsenoside GS #10 of one embodiment of the present disclosure and the other ginsenosides GS #01-GS #06 isolated from the existing ginseng seed extract at a concentration of 20 pg/ml for 24 hours, respectively, the amount of mitochondria in myocytes was observed by staining with a Mitotracker Green™ (Invitrogen) reagent. mRNA expression levels of mitochondrial marker genes were measured using Q-PCR. As positive controls, a combination of GW501516 and Metformin (GW/Met; treated at 10 μM each), which are candidates for exercise mimetics and are known to improve exercise ability by activating PPARδ (Peroxisome proliferator-activated receptor delta) and AMPK (AMP-activated protein kinase), respectively, was used. The mitochondrial number measured as a result of the test is shown in FIG. 11, and the mitochondrial marker gene expression levels are shown in FIGS. 12 to 14.
(§4) The experiments were performed in the same manner as in Test Examples 1 and 2 above, respectively.
(§5) First, the C2C12 myocytes differentiated in the same manner as in Test Example 1 above were treated with ginsenosides Rg1, Rg3, and Rb1, which are comparative examples of the present disclosure, and the novel ginsenoside GS #10 of one embodiment of the present disclosure, respectively, and then mitochondria and marker genes were observed (FIGS. 21 to 25). In addition, in the same manner as in Test Example 2 above, after administration of 20 mg/kg each of ginsenosides Rg1, Rg3, Rb1, which are comparative examples of the present disclosure, and the novel ginsenoside GS #10 of one embodiment of the present disclosure for 6 weeks to the mice, the exercise ability was observed.

A further data set concerns Sprague-Dawley (SD) mice. In words: Treadmill experiment after 6 weeks of oral administration (muscle mitochondrial genes, exercise time, plasma lactate). The class given is in vivo. As to conditions: 20 mg/kg orally for 6 weeks; for expression of mitochondrial marker gene in muscle (mitochondrial activity): muscle tissue after treadmill, FIGS. 16-18; for exercise time / exercise ability on treadmill: run until exhausted, FIGS. 19, 25. How it is done: The following experiment was performed to confirm whether the exercise ability improving effect due to the increased mitochondrial production and lipid metabolism promotion of the ginseng seed-derived novel ginsenoside (GS #10) confirmed in Test Example 1 above was also shown at the actual individual level. 20 mg/kg each of the novel ginsenoside GS #10 of one embodiment of the present disclosure and the other ginsenosides GS #01-GS #06 isolated from the existing ginseng seed extract was orally administered to 39-week-old female Sprague-Dawley (SD) mice, and 10 mg/kg each thereof was orally administered to the control group GW/Met for 6 weeks. In order to improve the treadmill adaptability during the six-week experiment, mice were placed on the treadmill every two weeks to familiarize them with the use of the treadmill. After six weeks of administration, mice were placed on a treadmill to run on the treadmill. The exercise time was until the mice were exhausted and pushed down from the treadmill, and the mice which finished the exercise was immediately extracted of muscle tissue and plasma by necropsy. […] The expression patterns of mitochondrial marker genes in muscle are shown in FIGS. 16 to 18, and exercise time and plasma lactate in blood are shown in FIGS. 19 and 20.
as §4, §5

In a further data set the test system is C2C12 myoblasts. In words: Myocyte differentiation promotion (mRNA of MyoG, α-actin, myosin). The class given is cell-based, mouse. As to conditions: 10 pg/ml during 4 days of differentiation in 2% horse serum; FIGS. 29-31, 33-35. How it is done:
As muscles decrease with age, supplementing muscle mass by differentiating myoblasts into myocytes is an essential process for maintaining muscle mass. […] During the differentiation period, the novel ginsenoside GS #10 of one embodiment of the present disclosure and the other ginsenosides GS #01-GS #06 isolated from the existing ginseng seed extract were treated at a concentration of 10 pg/ml, respectively. The control is differentiation medium not treated with ginsenosides. […] After 4 days of differentiation, mRNA was extracted from each treatment group using Trizol™ reagent (Thermo Fisher Scientific), and then cDNA was synthesized using a RevertAid 1st strand cDNA synthesis kit (Thermo Fisher Scientific). The expression levels of myoG, α-actin and myosin, which are muscle fiber marker genes, were observed using a temperature-cycling nucleic acid amplifier (CFX96 thermocycle, Bio-Rad).
The experiment was performed in the same manner as in Test Examples 5 and 6.

The next data set has as its system SH-SY5Y cells. In words: Cytotoxicity, Cell Counting Kit (CCK)-8. It counts as cell-based. Particulars: SH-SY5Y cells, 0.1, 1, 5, 10, 20 and 50 μM; FIG. 27. How it is done: The cell growth in the presence of novel ginsenoside GS #10 of one embodiment of the present disclosure was evaluated using Cell Counting Kit (CCK)-8 in order to exclude the possibility that ginsenosides may affect exercise ability enhancing efficacy through cytotoxic activity. The experimental method is as follows.
10 μl of a CCK-8 reagent was added to SH-SY5Y cells in culture (Dojindo, Md., USA) with reference to a 96-well plate and left at 37° C. for 2 hours, and then absorbance was measured at 450 nm. The cell viability was marked as a percentage (%) of the absolute optical density of each sample relative to the untreated sample. At this time, the concentration of the novel ginsenoside GS #10, which is an example of the present disclosure, contained in the medium in which the cells were cultured was 0.1, 1, 5, 10, 20, and 50 μM, respectively.
In general terms: Tetrazolium assays rely on reduction of a dye to a coloured formazan, in cell work by metabolically active cells.

Data set [2] deals with mouse-derived myocyte lines (C2C12; ATCC). In words: Fatty acid oxidation in differentiated myocytes. Particulars: 20 pg/ml, 24 hours, FIG. 15. The class given is cell-based. How it is done:
as §1, §2
as §3, with “As positive controls, a combination of GW501516 and Metformin (GW/Met; treated at 10 μM each), which are candidates for exercise mimetics and are known to improve exercise ability by activating PPARδ (Peroxisome proliferator-activated receptor delta) and AMPK (AMP-activated protein kinase), respectively, was used.” left out

Data set [3] has as its system C2C12 myoblasts induced with chronic inflammation (IL-6). In words: Cell growth recovery of myoblasts with IL-6-induced chronic inflammation. It counts as cell-based, mouse. As to conditions: IL-6 10 ng/ml for 4 weeks, then 10 pg/ml for 48 hours; FIGS. 28, 32. An excerpt: Muscle cells are made from myosatellite cells present inside the muscle. They are usually in a quiescent state, and when muscle damage such as exercise is applied, they wake up and are divided to form myoblasts, and these myoblasts differentiate to form myocytes. These muscle stem cells are known to decrease in number and activity with age. In this process, the inflammatory response, especially IL-6 is involved. Therefore, it was confirmed through the following experiment whether the novel ginsenoside of the embodiment of the present disclosure can restore cell division of muscle stem cells under IL-6-mediated muscle stem cell growth inhibition conditions.
Since muscle stem cells are not available in the form of cell lines, mouse-derived muscle cell lines (C2C12, ATCC) located between muscle stem cells and myoblasts were cultured using Dulbecco's Modified Eagle's Medium (Sigma) containing 10% fetal bovine serum (Hyclone) and 1% penicillin/streptomycin (Sigma). […] Accordingly, in order to induce an inflammatory state due to aging, IL-6 (10 ng/ml) was treated for 4 weeks to induce myoblast aging. […] Myoblasts of this state were treated with the novel ginsenoside GS #10 of one embodiment of the present disclosure and the other ginsenosides GS #01-GS #06 isolated from the existing ginseng seed extract at a concentration of 10 pg/ml each for 48 hours. […]

The next data set deals with Balb/c mice. In words: Anti-fatigue efficacy in sleep-deprivation fatigue model (forced swim test, plasma lactate). Particulars: oral, 2 weeks; GS #10 10 and 50 mg/kg, ginseng seed extract 50 mg/kg; 24 hours sleep deprivation; FIGS. 36, 37. The class given is in vivo. An excerpt:
In Test Example 2 above, it was confirmed that the novel ginsenoside GS #10 of one embodiment of the present disclosure improved exercise ability and lowered plasma lactate in blood that is increased by exercise. […] Experimental methods are the same as those described in Cho et al., Biol Pharm Bull 33 (7):1128, which is incorporated herein by reference in its entirety. Balb/c mice purchased from Samtako were adapted to the age of 12 weeks and then divided into a fatigue-induced group of 32 mice and a control of 8 mice. The fatigue-induced group was divided into 4 groups again, each of 8 mice, of which is the novel ginsenoside GS #10 10 mg/kg treatment group (F/GS #10 10), 50 mg/kg treatment group (F/GS #10 50), ginseng seed extract 50 mg/kg treatment group (F/GSE #10 50), and untreated group (Fatigue). The ginseng seed extract is a comparative example of the present disclosure, and is a ginseng seed (seeds of Panax ginseng) methanol extract used in the isolation of ginsenoside in Example 1 described above herein. […] Then, while performing the FST (forced swim test) 6 minutes, the time during which the mice of each experiment group floated still on the water without swimming was measured to calculate fatigue. Thereafter, the plasma lactate in blood was measured, and the degree of accumulation of the fatigue substance was observed. […]

Consider `CC(C)=CCC[C@](C)(O[C@@H]1O[C@H](CO[C@@H]2O[C@H](CO)[C@@H](O)[C@H](O)[C@H]2O)[C@@H](O)[C@H](O)[C@H]1O)[C@H]1CC[C@]2(C)[C@@H]1[C@H](O)C[C@@H]1[C@@]3(C)CC[C@H](O[C@@H]4O[C@H](CO)[C@@H](O)[C@H](O)[C@H]4O[C@@H]4O[C@H](CO)[C@@H](O)[C@H](O)[C@H]4O)C(C)(C)[C@@H]3CC[C@]12C` [GS #05, ginsenoside Rb1, reference compound], for which the “mitochondrial biosynthesis ability / mitochondria production (mitochondrial number; PGC1α, NRF1, tfam expression)” value in data set [1] (FIGS. 11-14, 21-24) is “a slight mitochondria increasing efficacy”. The “mitochondrial biosynthesis ability / mitochondria production (mitochondrial number; PGC1α, NRF1, tfam expression)” value in data set [1] (FIGS. 11-14, 21-24, listed as Rb1) is given as “did not increase mitochondria production”. Moreover, in the data set with Sprague-Dawley (SD) mice, the “expression of mitochondrial marker gene in muscle (mitochondrial activity)” value (from here on “expression of mitochondrial marker gene”) is “insignificant” and the “exercise time / exercise ability on treadmill” value is “insignificant”.
For the compound `CC(C)=CCC[C@](C)(O[C@@H]1O[C@H](CO)[C@@H](O)[C@H](O)[C@H]1O)[C@H]1CC[C@]2(C)[C@@H]1[C@H](O)C[C@@H]1[C@@]3(C)CC[C@H](O)C(C)(C)[C@@H]3[C@@H](O[C@@H]3O[C@H](CO)[C@@H](O)[C@H](O)[C@H]3O)C[C@]12C` [Rg1, ginsenoside Rg1], the “mitochondrial biosynthesis ability / mitochondria production (mitochondrial number; PGC1α, NRF1, tfam expression)” value in data set [1] (FIGS. 11-14, 21-24) is reported as “did not increase mitochondria production”.
For `C[C@@H]1CC(=O)C(C)(C)C2C1C1C[C@@H](O)C3C([C@]4(C)CC[C@H](C(C)(C)O)O4)CC[C@@]3(C)[C@]1(C)C[C@@H]2O[C@H]1OC(CO)[C@H](O)C(O)C1O[C@H]1OC(CO)[C@H](O)C(O)C1O` (stereo partly drawn) [GS #10, (20S,24R)-6-O-β-D-glucopyranosyl(1→2)-β-D-glucopyranoside-dammar-3-one-20,24-epoxy-6a,12b,25-triol], in data set [1] (FIGS. 11-14, 21-24), the “mitochondrial biosynthesis ability / mitochondria production (mitochondrial number; PGC1α, NRF1, tfam expression)” value is “the most excellent; also recorded: showed mitochondria increasing efficacy”. Moreover, the “lactic acid concentration (plasma lactate), muscle fatigue marker” value in the data set with Sprague-Dawley (SD) mice (blood after treadmill, FIGS. 20, 26) was “the lowest pattern; also recorded: anti-fatigue effect”. In the data set with Sprague-Dawley (SD) mice, the “expression of mitochondrial marker gene” value is “significantly increased” and the “exercise time / exercise ability on treadmill” value is on record as “doubled the exercise time; also recorded: significant exercise ability improvement”. The “myocyte differentiation marker gene expression (MyoG, α-actin, myosin)” value in the data set with C2C12 myoblasts was “a significant increase in marker gene expression; also recorded: myocyte differentiation”. For the same compound, the “cytotoxicity (cell viability, % of untreated)” value in the data set with SH-SY5Y cells is “did not exhibit cytotoxicity up to 50 μM”. The “fatty acid oxidation in myocytes” value in data set [2] is “increased the most”. Moreover, the “cell growth recovery of aged myoblasts (number of cells)” value in data set [3] was “a significant effect; also recorded: showed the effects of promoting myoblast growth”. Also, the “fatigue relief (FST immobility time, plasma lactate)” value in the data set on Balb/c mice was “reduce the symptoms caused by fatigue in a concentration-dependent manner”.
In the case of `CC(C)=CCC[C@](C)(O[C@@H]1O[C@H](CO[C@@H]2OC[C@H](O)[C@H](O)[C@H]2O)[C@@H](O)[C@H](O)[C@H]1O)[C@H]1CC[C@]2(C)[C@@H]1[C@H](O)C[C@@H]1[C@@]3(C)CC[C@H](O[C@@H]4O[C@H](CO)[C@@H](O)[C@H](O)[C@H]4O[C@@H]4O[C@H](CO)[C@@H](O)[C@H](O)[C@H]4O)C(C)(C)[C@@H]3CC[C@]12C` [GS #06, ginsenoside Rb2, reference compound], in data set [1] (FIGS. 11-14, 21-24), the “mitochondrial biosynthesis ability / mitochondria production (mitochondrial number; PGC1α, NRF1, tfam expression)” value is “a slight mitochondria increasing efficacy”. Moreover, in the data set with Sprague-Dawley (SD) mice, the “expression of mitochondrial marker gene” value is reported as “insignificant” and the “exercise time / exercise ability on treadmill” value is “insignificant”.
ginsenoside Rg3: the “mitochondrial biosynthesis ability / mitochondria production (mitochondrial number; PGC1α, NRF1, tfam expression)” value in data set [1] (FIGS. 11-14, 21-24) is “did not increase mitochondria production”.
